We go through ten molecules from patent US20050054637A1, “Substituted piperazine cyclohexane carboxilic acid amides and the use thereof” (priority 2001, published 2005).

Test [1] concerns adenosine uptake in rabbit erythrocytes. The test can be described thus: Inhibition of the adenosine uptake in rabbit erythrocytes (functional adenosine-uptake test). In kind it is cell-based. The following applies: Oryctolagus cuniculus, 0.25 h; rabbit erythrocyte preparation, 30° C., adenosine remaining 15 min after addition of adenosine. The protocol: 1. Inhibition of the Adenosine Uptake in Rabbit Erythrocytes by the Compounds According to the Invention
The capability of substnaces to influence the adenosine-uptake system is investigated by determining the inhibitory effect of the substances on functional adenosine uptake.
For the functional adenosine-uptake test, an erythrocyte preparation from rabbit blood is used. The blood is drawn intravenously using citrate (3 ml Monovette 9NC from Sarstedt) as anticoagulant. The blood is centrifuged at 3000 g for 5 min and the erythrocytes are suspended in 10 mM 3-(N-morpholino)propanesulphonic acid buffer (MOPS)/0.9% aqueous sodium chloride solution pH 7.4. The suspension is diluted to one hundredth of the original blood volume. In each case, 990 μl of the suspension are admixed with 10 μl of a suitable concentration of the substance to be examined, and the mixture is incubated at 30° C. for 5 min. 5 μl of a 4 mM adenosine solution are then added, and the mixture is incubated at 30° C. for another 15 min. The samples are then centrifuged at 3000 g for 5 min and in each case 700 μl of the supernatant are mixed with 28 μl of 70% strength HClO4, allowed to stand in an ice bath for 30 min and centrifuged at 16 000 g for 3 min, and 350 μl of the sample are neutralized using 30 μl of 5 N NaOH. 50 μl of the sample are applied to a column (Waters Symmetry C18 5 μm, 3.9×150 mm). A Spherisorb ODS II 5 μm, 4.6×10 mm column is used as precolumn The mobile phase used is a gradient of 50 mM KH2PO4/5 mM tributylamine pH 7 (mobile phase A) and a mixture of mobile phase A/methanol 1:1 (mobile phase B). The gradient is from 10% to 40% B, at a flow rate of 0.5 ml/min. The adenosine which is present is quantified by its absorption at 260 nm, as are the hypoxanthine and inosine formed.
Table 1 below lists the IC50 values obtained using this test: […]

Another test has as its system mongrel dogs. The test can be described thus: In vivo test model for adenosine-uptake inhibitors: reactive hyperaemia after coronary occlusion in anaesthetized dogs. Also on record: species or system dog. The following applies: 10 μg/kg i.v., reactive hyperaemia after four-minute occlusion. The protocol: 2. In vivo Test Model for Testing Adenosine-Uptake Inhibitors
Adult mongrel dogs (body weight 20-30 kg) are initially anaesthetized using a combination of trapanal 500 mg and alloferin 55 mg. Anaesthesia is maintained by infusion of a mixture of fentanyl 0.072 mg/kg, alloferin 0.02 mg/kg and dihydrobenzpyridyl 0.25 mg/kg×min. The animals are intubated and ventilated with a mixture of O2/N2O (ratio 1:5) using a Dräger ventilation pump at 16 breaths per min and a volume of 18-24 ml/kg. The body temperature is maintained at 38° C.±0.1° C. Arterial blood pressure is measured via a catheter in the femoral artery. A thoractomy is carried out on the left side at the fifth intercostal space. The lung is pushed back and fixed and a cut is made in the pericardium. A proximal section of the LAD distally to the first diagonal branch is exposed and a calibrated electromagnetic flow sensor (from Scalar) is placed around the vessel and attached to a flow meter (from Scalar, model MDL 1401). Distally to the flow sensor, a mechanical occluder is attached such that there are no branches in between flow sensor and occluder.
Using a catheter in the femoral vein, blood samples are taken and substances (10 μg/kg i.v.) are administered. A peripheral ECG is recorded using needles which are fixed subcutaneously. A microtip pressure manometer (from Millar, model PC-350) is pushed through the left atrium to measure the pressure in the left ventricle. Measurement of the heart frequency is triggered by the R wave of the ECG. During the entire experiment, the haemodynamic parameters and the coronary flow are recorded using a multi-event recorder.
A four-minute occlusion causes reactive hyperaemia. The difference between the coronary flow under control conditions and the maximum flow during the reactive hyperaemia is measured. The time which is required to achieve half of this maximum flow in the drop is a suitable parameter to assess the reaction hyperaemia.
After a stabilization period of one hour, the experiment is started with a four-minute occlusion. Thirty minutes later, the substance is administered (i.v.) which is, after two minutes, followed by re-occlusion. The reactive hyperaemia after verum and placebo is compared.

With `NC(=O)[C@@H](NC(=O)[C@@H]1CCCC[C@H]1N1CCN(C(=O)c2ccccc2)CC1)c1ccccc1` [Example 1, (1R,2R)-N-[(1S)-2-Amino-2-oxo-1-phenylethyl]-2-(4-benzoyl-1-piperazinyl)cyclo-hexanecarboxamide], the IC50 (commonly the concentration needed to halve the response being measured) in test [1] stood at 30 nM. Further, in the test with mongrel dogs, the “Increase of coronary blood flow in %” value was determined as 258%. In turn, `NC(=O)[C@@H](NC(=O)[C@@H]1CCCC[C@H]1N1CCN(C(=O)c2ccccc2)CC1)c1ccc(F)cc1` [Example 2, (1R,2R)-N-[(1S)-2-Amino-2-oxo-1-(4-fluorophenyl)ethyl]-2-(4-benzoyl-1-piperazin-yl)cyclohexanecarboxamide] showed an IC50 in test [1] of 30 nM. Consider `NC(=O)[C@@H](NC(=O)[C@@H]1CCCC[C@H]1N1CCN(C(=O)c2n[nH]c3ccccc23)CC1)c1ccccc1` [Example 3, (1R,2R)-N-[(1S)-2-Amino-2-oxo-1-phenylethyl]-2-[4-(1H-indazol-3-ylcarbonyl)-1-piperazinyl]cyclohexanecarboxamide], for which, in test [1], the half-maximal inhibitory concentration (IC50) was 30 nM. In test [1], `NC(=O)[C@@H](NC(=O)[C@@H]1CCCC[C@H]1N1CCN(Cc2ccccc2)CC1)c1ccc(F)cc1` [Example 8, (1R,2R)-N-[(1S)-2-Amino-1-(4-fluorophenyl)-2-oxoethyl]-2-(4-benzyl-1-piperazinyl)cyclohexanecarboxamide] had a concentration for half-maximal inhibition (IC50) of 80 nM. For `NC(=O)[C@@H](NC(=O)[C@@H]1CCCC[C@H]1N1CCN(C(=O)c2ccc(F)cc2F)CC1)c1ccccc1` [Example 16, (1R,2R)-N-[(1S)-2-Amino-2-oxo-1-phenylethyl]-2-[4-(2,4-difluorobenzoyl)-1-piperazinyl)cyclohexanecarboxamide], the IC50 in test [1] was 30 nM. Further, the “Increase of coronary blood flow in %” value in the test on mongrel dogs is 326%. Turning to `Cc1ccc(C(=O)N2CCN([C@@H]3CCCC[C@H]3C(=O)N[C@H](C(N)=O)c3ccccc3)CC2)s1` [Example 17, (1R,2R)-N-[(1S)-2-Amino-2-oxo-1-phenylethyl]-2-{4-[(5-methyl-2-thienyl)-carbonyl]-1-piperazinyl}cyclohexanecaiboxamide], the concentration for half-maximal inhibition (IC50) in test [1] was 20 nM. In the test with mongrel dogs, the “Increase of coronary blood flow in %” value was 250%. `NC(=O)[C@@H](NC(=O)[C@@H]1CCCC[C@H]1N1CCN(C(=O)c2ccc[nH]2)CC1)c1ccccc1` [Example 18, (1R,2R)-N-[(1S)-2-Amino-2-oxo-1-phenylethyl]-2-{4-[(2-pyrrolyl)carbonyl]-1-piperazinyl}cyclohexanecarboxamide] yielded an IC50 in test [1] of 30 nM. The “Increase of coronary blood flow in %” value in the test on mongrel dogs was determined as 347%.

As for `NC(=O)[C@@H](NC(=O)[C@@H]1CCCC[C@H]1N1CCN(C(=O)OC2CCCC2)CC1)c1ccccc1` [Example 21], in test [1], the IC50 stood at 15 nM. This counts as double-digit nanomolar. Same read-out and setting: as for `NC(=O)[C@@H](NC(=O)[C@@H]1CCCC[C@H]1N1CCN(C(=O)c2ccccc2F)CC1)c1ccccc1` [Example 27], the figure is 20 nM.

`NC(=O)[C@@H](NC(=O)[C@@H]1CCCC[C@H]1N1CCN(C(=O)c2ccc3c(c2)OCO3)CC1)c1ccccc1` [Example 66] registered an IC50 in test [1] of 20 nM.
